Assay results as given in ChEMBL document CHEMBL4613324, “Design, Synthesis, and Evaluation of a Series of Novel Super Long-Acting DPP-4 Inhibitors for the Treatment of Type 2 Diabetes” (J Med Chem, 2020).

What was measured:
Cytochrome P450 3A4 [1] = target: T1, Cytochrome P450 3A4 (Homo sapiens, UniProt P08684); test: (§1) Inhibition of recombinant human CYP3A4 using testosterone as substrate; format: ADME
Cytochrome P450 3A4 [2] = target: T1, Cytochrome P450 3A4; test: Inhibition of recombinant human CYP3A4 using midazolam as substrate; format: ADME
Cytochrome P450 2C19 [3] = target: T2, Cytochrome P450 2C19 (Homo sapiens, UniProt P33261); test: (§2) Inhibition of recombinant human CYP2C19; format: ADME
T2 sequence (P33261 whole entry): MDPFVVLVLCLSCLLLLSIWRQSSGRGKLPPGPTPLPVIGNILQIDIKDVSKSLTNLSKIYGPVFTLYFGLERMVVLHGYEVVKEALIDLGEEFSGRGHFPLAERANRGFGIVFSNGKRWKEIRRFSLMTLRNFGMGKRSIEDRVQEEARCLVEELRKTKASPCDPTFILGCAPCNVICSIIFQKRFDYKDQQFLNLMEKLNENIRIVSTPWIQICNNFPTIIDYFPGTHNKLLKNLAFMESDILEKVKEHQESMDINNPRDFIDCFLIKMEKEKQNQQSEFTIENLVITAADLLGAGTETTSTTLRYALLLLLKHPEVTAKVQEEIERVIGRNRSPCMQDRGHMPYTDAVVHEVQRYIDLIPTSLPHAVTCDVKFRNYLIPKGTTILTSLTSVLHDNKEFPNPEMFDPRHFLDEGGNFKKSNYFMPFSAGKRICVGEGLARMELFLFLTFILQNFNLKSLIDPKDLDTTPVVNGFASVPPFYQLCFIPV

Cytochrome P450 1A2 [4] = target: T3, Cytochrome P450 1A2 (Homo sapiens, UniProt P05177); test: (§3) Inhibition of recombinant human CYP1A2; format: ADME
T3 sequence (P05177 whole entry): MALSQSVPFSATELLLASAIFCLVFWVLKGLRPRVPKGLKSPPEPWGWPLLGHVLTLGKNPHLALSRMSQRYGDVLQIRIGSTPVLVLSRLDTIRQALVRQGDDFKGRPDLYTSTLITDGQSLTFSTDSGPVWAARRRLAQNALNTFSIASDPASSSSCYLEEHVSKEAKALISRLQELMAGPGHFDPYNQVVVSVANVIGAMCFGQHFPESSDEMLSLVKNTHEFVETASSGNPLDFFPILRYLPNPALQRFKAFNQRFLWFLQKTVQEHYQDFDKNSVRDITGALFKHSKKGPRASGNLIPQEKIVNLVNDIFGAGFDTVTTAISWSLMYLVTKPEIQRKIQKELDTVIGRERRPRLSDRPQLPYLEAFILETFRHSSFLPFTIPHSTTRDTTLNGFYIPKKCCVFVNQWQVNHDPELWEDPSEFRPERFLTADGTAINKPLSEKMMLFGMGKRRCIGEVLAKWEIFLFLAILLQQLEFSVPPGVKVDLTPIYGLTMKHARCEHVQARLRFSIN

Cytochrome P450 3A4 [5] = target: T1, Cytochrome P450 3A4; test: as §1; format: ADME; remark: listed apart in the source
Cytochrome P450 1A2 [6] = target: T3, Cytochrome P450 1A2; test: as §3; format: ADME; remark: listed apart in the source
[7] = AUC (0 to t) in ICR mouse at 2 mg/kg, po measured after 0.0833 to 120 hrs by LC-MS-MS analysis; format: ADME, organism-based; design: time upper 120 hr, time lower 0.083 hr, dose 2 mg/kg, route oral; settings: in vivo
Dipeptidyl peptidase 8 = Dipeptidyl peptidase 8 (Homo sapiens, UniProt Q6V1X1); test: Inhibition of human recombinant DPP8 incubated for 15 mins using Gly-Pro-7-AMC substrate
Chain of Dipeptidyl peptidase 8 (Q6V1X1 whole entry): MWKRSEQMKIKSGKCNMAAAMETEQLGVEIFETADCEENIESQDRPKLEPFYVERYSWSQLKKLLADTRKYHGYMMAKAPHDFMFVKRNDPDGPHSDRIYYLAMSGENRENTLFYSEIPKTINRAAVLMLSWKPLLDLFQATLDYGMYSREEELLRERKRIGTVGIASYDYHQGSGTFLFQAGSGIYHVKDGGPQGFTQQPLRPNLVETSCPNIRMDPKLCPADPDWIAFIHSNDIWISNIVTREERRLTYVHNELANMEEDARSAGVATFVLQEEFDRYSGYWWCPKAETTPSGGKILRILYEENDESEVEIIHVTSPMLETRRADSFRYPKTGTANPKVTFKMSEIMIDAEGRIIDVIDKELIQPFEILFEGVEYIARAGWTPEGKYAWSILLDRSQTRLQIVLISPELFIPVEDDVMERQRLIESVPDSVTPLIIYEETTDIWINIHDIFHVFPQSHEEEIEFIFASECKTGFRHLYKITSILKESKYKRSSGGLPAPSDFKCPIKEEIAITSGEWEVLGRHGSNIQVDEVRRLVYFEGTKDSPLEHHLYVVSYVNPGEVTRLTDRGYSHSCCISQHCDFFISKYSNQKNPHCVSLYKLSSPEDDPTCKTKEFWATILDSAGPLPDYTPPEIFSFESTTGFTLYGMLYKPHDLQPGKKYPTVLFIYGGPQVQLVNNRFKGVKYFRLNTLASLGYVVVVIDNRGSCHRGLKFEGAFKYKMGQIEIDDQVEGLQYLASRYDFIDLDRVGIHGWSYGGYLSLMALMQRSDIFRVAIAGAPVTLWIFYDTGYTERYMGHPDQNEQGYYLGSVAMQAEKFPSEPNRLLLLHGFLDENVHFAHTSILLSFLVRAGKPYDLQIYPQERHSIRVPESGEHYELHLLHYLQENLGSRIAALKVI

Cytochrome P450 2E1 [8] = target: T4, Cytochrome P450 2E1 (Homo sapiens, UniProt P05181); test: (§4) Inhibition of recombinant human CYP2E1; format: ADME
T4 sequence (P05181 whole entry): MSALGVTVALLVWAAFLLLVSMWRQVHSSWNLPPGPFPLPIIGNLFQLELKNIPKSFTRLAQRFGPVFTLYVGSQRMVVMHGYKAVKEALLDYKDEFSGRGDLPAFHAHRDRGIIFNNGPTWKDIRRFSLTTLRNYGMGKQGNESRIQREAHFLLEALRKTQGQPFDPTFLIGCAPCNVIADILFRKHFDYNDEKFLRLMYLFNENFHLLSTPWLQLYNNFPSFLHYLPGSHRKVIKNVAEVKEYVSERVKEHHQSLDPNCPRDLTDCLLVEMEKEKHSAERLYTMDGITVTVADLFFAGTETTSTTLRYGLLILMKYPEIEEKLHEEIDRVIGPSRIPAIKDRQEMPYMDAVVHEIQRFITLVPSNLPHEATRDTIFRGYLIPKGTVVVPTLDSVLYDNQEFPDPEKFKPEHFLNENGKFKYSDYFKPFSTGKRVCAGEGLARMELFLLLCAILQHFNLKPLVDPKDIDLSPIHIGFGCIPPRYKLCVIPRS

[9] = Volume of distribution at steady state in ICR mouse at 0.5 mg/kg, iv measured after 0.0833 to 120 hrs by LC-MS-MS analysis; format: ADME, organism-based; settings: in vivo, read-out: Vdss
[10] = Toxicity in ob/ob mouse assessed as induction of body weight gain at 1 to 10 mg/kg, po dosed once every three days for 31 days; format: organism-based; settings: in vivo, 744 h
[11] = AUC in male Sprague-Dawley rat during 3-month repeated dose toxicology study; format: ADME; settings: in vivo
Rhesus monkey = test: Ex-vivo inhibition of DPP4 in plasma isolated from rhesus monkey treated at 10 mg/kg, ig after 12 days by fluorescence based assay relative to control; format: functional; settings: Macaca mulatta, po, 288 h
Cytochrome P450 2C9 [12] = target: T5, Cytochrome P450 2C9 (Homo sapiens, UniProt P11712); test: (§5) Inhibition of recombinant human CYP2C9; format: ADME
T5 sequence (P11712 whole entry): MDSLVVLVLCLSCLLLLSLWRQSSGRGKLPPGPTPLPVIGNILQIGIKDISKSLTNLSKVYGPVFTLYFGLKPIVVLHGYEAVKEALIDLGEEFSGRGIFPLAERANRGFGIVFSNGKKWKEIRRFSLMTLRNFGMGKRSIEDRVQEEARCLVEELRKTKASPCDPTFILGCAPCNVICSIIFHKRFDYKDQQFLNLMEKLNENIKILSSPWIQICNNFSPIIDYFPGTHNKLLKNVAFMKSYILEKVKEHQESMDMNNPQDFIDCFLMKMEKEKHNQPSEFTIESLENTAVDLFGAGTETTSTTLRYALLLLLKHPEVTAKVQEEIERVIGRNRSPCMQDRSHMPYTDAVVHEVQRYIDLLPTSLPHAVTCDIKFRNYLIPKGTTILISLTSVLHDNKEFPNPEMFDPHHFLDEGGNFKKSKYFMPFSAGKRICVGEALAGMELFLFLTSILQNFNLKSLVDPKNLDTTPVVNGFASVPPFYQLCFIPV

Cytochrome P450 2C8 = target: T6, Cytochrome P450 2C8 (Homo sapiens, UniProt P10632); test: Inhibition of recombinant human CYP2C8; format: ADME
T6 sequence (P10632 whole entry): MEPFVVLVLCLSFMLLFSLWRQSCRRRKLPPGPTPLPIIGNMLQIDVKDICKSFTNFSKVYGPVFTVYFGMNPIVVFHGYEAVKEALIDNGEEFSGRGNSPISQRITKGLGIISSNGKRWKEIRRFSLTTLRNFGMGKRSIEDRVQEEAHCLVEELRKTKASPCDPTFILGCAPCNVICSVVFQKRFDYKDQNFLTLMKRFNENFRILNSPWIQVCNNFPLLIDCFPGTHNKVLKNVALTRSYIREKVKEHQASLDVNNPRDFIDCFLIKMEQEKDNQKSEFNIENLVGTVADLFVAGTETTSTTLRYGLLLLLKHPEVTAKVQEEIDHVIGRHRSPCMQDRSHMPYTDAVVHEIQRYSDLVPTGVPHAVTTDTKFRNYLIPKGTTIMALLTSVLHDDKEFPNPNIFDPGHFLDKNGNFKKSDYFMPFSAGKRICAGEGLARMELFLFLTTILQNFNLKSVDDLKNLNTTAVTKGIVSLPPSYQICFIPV

Cytochrome P450 1A2 [13] = target: T3, Cytochrome P450 1A2; test: as §3; format: ADME; remark: listed apart in the source
Cytochrome P450 3A5 = Cytochrome P450 3A5 (Homo sapiens, UniProt P20815); test: Inhibition of recombinant human CYP3A5 using midazolam as substrate; format: ADME
Chain of Cytochrome P450 3A5 (P20815 whole entry): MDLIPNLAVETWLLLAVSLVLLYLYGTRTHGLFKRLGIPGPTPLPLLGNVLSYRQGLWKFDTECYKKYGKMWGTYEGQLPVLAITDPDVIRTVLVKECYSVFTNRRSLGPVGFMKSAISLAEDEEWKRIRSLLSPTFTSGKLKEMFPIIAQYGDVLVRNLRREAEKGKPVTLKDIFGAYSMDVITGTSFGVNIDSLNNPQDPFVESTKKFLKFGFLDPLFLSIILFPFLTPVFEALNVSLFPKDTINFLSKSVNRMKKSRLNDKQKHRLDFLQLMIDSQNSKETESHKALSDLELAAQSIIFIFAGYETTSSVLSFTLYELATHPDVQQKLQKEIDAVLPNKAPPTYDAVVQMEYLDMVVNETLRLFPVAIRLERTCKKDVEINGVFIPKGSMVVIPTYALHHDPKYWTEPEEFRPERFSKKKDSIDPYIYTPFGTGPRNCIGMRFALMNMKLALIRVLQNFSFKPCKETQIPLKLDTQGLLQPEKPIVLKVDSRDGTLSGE

Cytochrome P450 2E1 [14] = target: T4, Cytochrome P450 2E1; test: as §4; format: ADME; remark: listed apart in the source
Cytochrome P450 2B6 = target: T7, Cytochrome P450 2B6 (Homo sapiens, UniProt P20813); test: Inhibition of recombinant human CYP2B6; format: ADME
T7 sequence (P20813 whole entry): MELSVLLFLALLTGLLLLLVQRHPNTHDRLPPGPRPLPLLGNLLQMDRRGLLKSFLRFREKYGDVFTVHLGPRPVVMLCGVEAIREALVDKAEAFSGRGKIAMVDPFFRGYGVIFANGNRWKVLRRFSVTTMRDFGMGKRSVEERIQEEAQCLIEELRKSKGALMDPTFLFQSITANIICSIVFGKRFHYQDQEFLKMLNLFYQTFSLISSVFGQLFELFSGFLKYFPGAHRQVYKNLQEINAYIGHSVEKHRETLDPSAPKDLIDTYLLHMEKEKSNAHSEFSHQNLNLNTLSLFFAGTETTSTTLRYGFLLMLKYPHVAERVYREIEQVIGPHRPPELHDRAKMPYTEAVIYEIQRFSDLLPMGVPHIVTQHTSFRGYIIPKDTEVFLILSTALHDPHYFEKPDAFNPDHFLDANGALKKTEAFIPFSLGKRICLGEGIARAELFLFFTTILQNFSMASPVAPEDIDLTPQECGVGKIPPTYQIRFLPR

[15] = Oral bioavailability in ICR mouse at 2 mg/kg measured after 0.0833 to 120 hrs by LC-MS-MS analysis; format: ADME, organism-based; settings: in vivo
Cytochrome P450 3A4 [16] = target: T1, Cytochrome P450 3A4; test: as §1; format: ADME; remark: listed apart in the source
[17] = Half life in ICR mouse at 2 mg/kg, po measured after 0.0833 to 120 hrs by LC-MS-MS analysis; format: ADME, organism-based; settings: in vivo
[18] = Clearance in ICR mouse at 0.5 mg/kg, iv measured after 0.0833 to 120 hrs by LC-MS-MS analysis; format: ADME, organism-based; settings: in vivo
CYP2C8 = CYP2C8 (Homo sapiens, UniProt P10632); test: Stability assessed as recombinant human CYP2C8 mediated compound metabolism by measuring parent compound remaining after 30 mins relative to control; format: ADME; settings: read-out: Stability
Cytochrome P450 2C19 [19] = target: T2, Cytochrome P450 2C19; test: as §2; format: ADME; remark: listed apart in the source
CYP3A5 = CYP3A5 (Homo sapiens, UniProt P20815); test: Stability assessed as recombinant human CYP3A5 mediated compound metabolism by measuring parent compound remaining after 30 mins relative to control; format: ADME; settings: read-out: Stability
Chain of CYP3A5 (P20815 whole entry): as the sequence (P20815 whole entry) above

[20] = Toxicity in female Sprague-Dawley rat during 3-month repeated dose toxicology study; settings: in vivo
CYP2E1 = CYP2E1 (Homo sapiens, UniProt P05181); test: Stability assessed as recombinant human CYP2E1 mediated compound metabolism by measuring parent compound remaining after 30 mins relative to control; format: ADME; settings: read-out: Stability
Chain of CYP2E1 (P05181 whole entry): as the sequence (P05181 whole entry) above

Cytochrome P450 2C9 [21] = target: T5, Cytochrome P450 2C9; test: as §5; format: ADME; remark: listed apart in the source
Mus musculus = test: Antidiabetic activity in ob/ob mouse assessed as reduction in decrease in HbA1c level at 10 mg/kg, po dosed once every three days for 31 day relative to control; format: functional; design: scale not given: the % may be the effect or the level left

T1 sequence (P08684 whole entry): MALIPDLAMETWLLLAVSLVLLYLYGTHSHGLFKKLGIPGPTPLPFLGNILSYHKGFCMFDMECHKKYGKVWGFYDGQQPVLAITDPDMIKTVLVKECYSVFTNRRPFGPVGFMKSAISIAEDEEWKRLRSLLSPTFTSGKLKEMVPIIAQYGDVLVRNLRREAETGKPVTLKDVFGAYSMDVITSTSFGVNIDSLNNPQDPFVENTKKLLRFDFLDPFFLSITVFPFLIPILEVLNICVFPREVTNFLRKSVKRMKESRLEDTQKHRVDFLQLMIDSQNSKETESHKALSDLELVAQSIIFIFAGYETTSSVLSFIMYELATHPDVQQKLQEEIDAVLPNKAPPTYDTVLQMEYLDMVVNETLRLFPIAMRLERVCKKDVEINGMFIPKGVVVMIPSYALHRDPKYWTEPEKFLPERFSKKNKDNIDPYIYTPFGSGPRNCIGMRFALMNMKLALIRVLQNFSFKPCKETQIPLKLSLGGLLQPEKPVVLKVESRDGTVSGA

CS(=O)(=O)n1cc2c(n1)CN([C@@H]1C[C@H](N)[C@@H](c3cc(F)ccc3F)O[C@@H]1C(F)(F)F)C2 [COFROGLIPTIN]
IC50 (Cytochrome P450 3A4 [1]): > 100 µM | IC50 (Cytochrome P450 3A4 [2]): > 100 µM | IC50 (Cytochrome P450 2C19 [3]): > 100 µM | IC50 (Cytochrome P450 1A2 [4]): > 100 µM | IC50 (Cytochrome P450 3A4 [5]): > 100 µM | IC50 (Cytochrome P450 1A2 [6]): > 100 µM | AUC(0-t) [7]: 7.9 µg·h/mL | IC50 (Dipeptidyl peptidase 8): > 100 µM | IC50 (Cytochrome P450 2E1 [8]): > 100 µM | Vd [9]: 3.3 L/kg | Activity [10]: Toxic | AUC [11]: 3600 µg·h/mL | inhibition in vivo at 10 mg/kg (Rhesus monkey): > 80% | IC50 (Cytochrome P450 2C9 [12]): > 100 µM | IC50 (Cytochrome P450 2C8): > 100 µM | IC50 (Cytochrome P450 1A2 [13]): > 100 µM | IC50 (Cytochrome P450 3A5): 45.8 µM | IC50 (Cytochrome P450 2E1 [14]): > 100 µM | IC50 (Cytochrome P450 2B6): > 100 µM | bioavailability [15]: 62.2% | IC50 (Cytochrome P450 3A4 [16]): > 100 µM | half-life [17]: 29.9 h | clearance [18]: 2.57 mL/min/kg | remaining at 0.5 h (CYP2C8): > 95% | IC50 (Cytochrome P450 2C19 [19]): > 100 µM | remaining at 0.5 h (CYP3A5): > 95% | NOAEL at 3 month [20]: 100 mg/kg | remaining at 0.5 h (CYP2E1): > 95% | IC50 (Cytochrome P450 2C9 [21]): > 100 µM | Activity (Mus musculus): 16.2%
